In ChEMBL document CHEMBL1909046, “DrugMatrix in vitro pharmacology data”:

Assays:
[1] = DRUGMATRIX: GABAA, Muscimol, Central radioligand binding (ligand: [3H] Muscimol); assay type: cell membranes, Rattus norvegicus, Wistar, Brain, Membrane; details: Not Active = under 50% inhibition at 10 µM
[2] = molecular target: Kappa-type opioid receptor (Homo sapiens, UniProt P41145); assay: DRUGMATRIX: Opiate kappa (OP2, KOP) radioligand binding (ligand: [3H] Diprenorphine); assay type: cell membranes, HEK293, Membrane; details: hek293; Not Active = under 50% inhibition at 10 µM
[3] = molecular target: T1, Alpha-1B adrenergic receptor (Rattus norvegicus, UniProt P15823); assay: DRUGMATRIX: Alpha-1B adrenergic receptor radioligand binding (ligand: prazosin); assay type: cell membranes, Wistar, Liver, Membrane; details: Not Active = under 50% inhibition at 10 µM
T1 sequence (P15823 whole entry): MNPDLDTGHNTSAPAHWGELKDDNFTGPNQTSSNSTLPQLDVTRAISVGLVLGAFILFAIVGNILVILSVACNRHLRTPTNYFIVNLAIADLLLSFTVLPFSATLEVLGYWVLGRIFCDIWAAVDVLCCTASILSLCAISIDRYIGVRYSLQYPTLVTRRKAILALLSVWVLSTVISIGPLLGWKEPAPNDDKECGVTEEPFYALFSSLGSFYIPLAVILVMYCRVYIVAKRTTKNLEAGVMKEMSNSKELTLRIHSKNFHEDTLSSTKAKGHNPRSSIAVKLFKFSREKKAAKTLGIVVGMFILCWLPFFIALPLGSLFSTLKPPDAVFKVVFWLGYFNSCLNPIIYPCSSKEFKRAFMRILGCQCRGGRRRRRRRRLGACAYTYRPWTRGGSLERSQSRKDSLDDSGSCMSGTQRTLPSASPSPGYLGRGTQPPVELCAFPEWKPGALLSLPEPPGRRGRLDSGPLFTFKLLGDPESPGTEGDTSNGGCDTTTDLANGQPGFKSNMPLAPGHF

Cytochrome P450 2D6 = Cytochrome P450 2D6 (Homo sapiens, UniProt P10635); details: bti-tn-5b1-4; note: in other assays of this panel Not Active means under 50% inhibition at 10 µM
Substance-P receptor = Substance-P receptor (Homo sapiens, UniProt P25103); assay type: cell membranes, CHO, Membrane; details: cho; note: in other assays of this panel Not Active means under 50% inhibition at 10 µM
Adenosine receptor A3 = molecular target: T2, Adenosine receptor A3 (Homo sapiens, UniProt P0DMS8); assay type: cell membranes, CHO-K1, Membrane; details: cho-k1;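 note: radioligand binding assay with AB-MECA serving as the labeled ligand; in other assays of this panel Not Active means under 50% inhibition at 10 µM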
T2 sequence (P0DMS8 whole entry): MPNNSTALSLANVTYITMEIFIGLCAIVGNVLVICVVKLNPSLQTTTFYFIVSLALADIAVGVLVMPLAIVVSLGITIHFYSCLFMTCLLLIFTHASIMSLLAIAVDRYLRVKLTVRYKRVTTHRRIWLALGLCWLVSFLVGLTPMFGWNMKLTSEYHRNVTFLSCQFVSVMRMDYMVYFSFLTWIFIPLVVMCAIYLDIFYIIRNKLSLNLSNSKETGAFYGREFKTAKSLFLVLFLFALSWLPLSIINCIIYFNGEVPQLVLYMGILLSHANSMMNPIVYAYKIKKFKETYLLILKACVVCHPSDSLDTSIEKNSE

Kappa-type opioid receptor, sequence (P41145 whole entry): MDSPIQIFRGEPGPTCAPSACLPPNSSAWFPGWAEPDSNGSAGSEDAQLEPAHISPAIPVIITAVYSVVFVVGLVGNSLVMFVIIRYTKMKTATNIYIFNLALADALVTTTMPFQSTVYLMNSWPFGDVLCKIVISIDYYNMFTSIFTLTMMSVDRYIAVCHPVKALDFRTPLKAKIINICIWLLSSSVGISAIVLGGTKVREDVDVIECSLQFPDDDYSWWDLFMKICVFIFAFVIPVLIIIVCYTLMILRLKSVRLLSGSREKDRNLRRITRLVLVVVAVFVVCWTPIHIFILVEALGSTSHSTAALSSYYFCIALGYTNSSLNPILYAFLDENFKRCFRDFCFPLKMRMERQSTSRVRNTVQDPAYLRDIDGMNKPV
Substance-P receptor, sequence (P25103 whole entry): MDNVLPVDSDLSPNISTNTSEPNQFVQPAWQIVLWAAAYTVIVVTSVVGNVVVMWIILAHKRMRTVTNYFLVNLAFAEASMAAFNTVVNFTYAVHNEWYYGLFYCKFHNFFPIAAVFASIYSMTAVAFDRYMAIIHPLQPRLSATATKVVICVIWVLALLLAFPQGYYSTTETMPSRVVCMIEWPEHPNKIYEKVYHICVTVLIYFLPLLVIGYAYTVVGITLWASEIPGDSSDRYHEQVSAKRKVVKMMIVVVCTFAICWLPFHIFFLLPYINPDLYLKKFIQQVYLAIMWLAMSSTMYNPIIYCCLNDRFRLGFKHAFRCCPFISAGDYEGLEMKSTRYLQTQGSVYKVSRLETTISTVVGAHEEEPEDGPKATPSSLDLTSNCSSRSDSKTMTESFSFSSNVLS
Cytochrome P450 2D6, sequence (P10635 whole entry): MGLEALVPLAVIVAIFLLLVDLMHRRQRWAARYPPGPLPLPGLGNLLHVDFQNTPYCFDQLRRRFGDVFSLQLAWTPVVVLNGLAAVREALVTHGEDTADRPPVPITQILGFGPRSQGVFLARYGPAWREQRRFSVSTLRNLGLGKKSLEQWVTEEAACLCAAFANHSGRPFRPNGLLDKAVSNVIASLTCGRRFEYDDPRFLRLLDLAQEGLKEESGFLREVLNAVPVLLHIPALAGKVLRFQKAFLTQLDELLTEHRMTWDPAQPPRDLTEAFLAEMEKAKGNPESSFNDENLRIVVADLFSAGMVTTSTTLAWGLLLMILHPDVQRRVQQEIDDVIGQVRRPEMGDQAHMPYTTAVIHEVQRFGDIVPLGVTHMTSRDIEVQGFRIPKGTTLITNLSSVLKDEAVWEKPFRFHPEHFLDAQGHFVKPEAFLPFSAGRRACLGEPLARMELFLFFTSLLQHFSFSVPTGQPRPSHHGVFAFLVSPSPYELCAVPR

O=C1CN=C(c2ccccc2Cl)c2cc([N+](=O)[O-])ccc2N1 [CLONAZEPAM]
Not Active: IC50 [1] | Ki [1] | IC50 [2] | IC50 [3] | IC50 (Cytochrome P450 2D6) | Ki (Cytochrome P450 2D6) | IC50 (Substance-P receptor) | IC50 (Adenosine receptor A3)

COC(=O)Nc1nc2ccc(C(=O)c3cccs3)cc2[nH]1 [NOCODAZOLE]
Not Active: IC50 [1] | Ki [1] | IC50 [2] | IC50 [3] | IC50 (Cytochrome P450 2D6) | Ki (Cytochrome P450 2D6) | IC50 (Substance-P receptor) | IC50 (Adenosine receptor A3)

C[C@H]1O[C@@H](n2cc(F)c(=O)[nH]c2=O)[C@H](O)[C@@H]1O [DOXIFLURIDINE]
Not Active: IC50 [1] | Ki [1] | IC50 [2] | IC50 [3] | IC50 (Cytochrome P450 2D6) | Ki (Cytochrome P450 2D6) | IC50 (Substance-P receptor) | IC50 (Adenosine receptor A3)

CC(C(=O)O)c1ccc2oc(-c3ccc(Cl)cc3)nc2c1 (configuration not stated) [BENOXAPROFEN]
Not Active: IC50 [1] | Ki [1] | IC50 [2] | IC50 [3] | IC50 (Cytochrome P450 2D6) | Ki (Cytochrome P450 2D6) | IC50 (Substance-P receptor) | IC50 (Adenosine receptor A3)

Nc1ccc2c3c(cccc13)C(=O)NC2=O
Not Active: IC50 [1] | Ki [1] | IC50 [2] | IC50 [3] | IC50 (Cytochrome P450 2D6) | Ki (Cytochrome P450 2D6) | IC50 (Substance-P receptor) | IC50 (Adenosine receptor A3)

C[n+]1ccccc1/C=N/O.[Cl-] [PRALIDOXIME CHLORIDE]
Not Active: IC50 [1] | Ki [1] | IC50 [2] | IC50 [3] | IC50 (Cytochrome P450 2D6) | Ki (Cytochrome P450 2D6) | IC50 (Substance-P receptor) | IC50 (Adenosine receptor A3)

NNc1nncc2ccccc12 [HYDRALAZINE]
Not Active: IC50 [1] | Ki [1] | IC50 [2] | IC50 [3] | IC50 (Cytochrome P450 2D6) | Ki (Cytochrome P450 2D6) | IC50 (Substance-P receptor) | IC50 (Adenosine receptor A3)

O=c1cnn([C@@H]2O[C@H](CO)[C@@H](O)[C@H]2O)c(=O)[nH]1 [6-AZAURIDINE]
Not Active: IC50 [1] | Ki [1] | IC50 [2] | IC50 [3] | IC50 (Cytochrome P450 2D6) | Ki (Cytochrome P450 2D6) | IC50 (Substance-P receptor) | IC50 (Adenosine receptor A3)

Cn1c(=O)c2c(ncn2CC(O)CO)n(C)c1=O (configuration not stated) [DYPHYLLINE]
Not Active: IC50 [1] | Ki [1] | IC50 [2] | IC50 [3] | IC50 (Cytochrome P450 2D6) | Ki (Cytochrome P450 2D6) | IC50 (Substance-P receptor) | IC50 (Adenosine receptor A3)

O=c1cc(N2CCOCC2)oc2c(-c3ccccc3)cccc12 [LY-294002]
Not Active: IC50 [1] | Ki [1] | IC50 [2] | IC50 [3] | IC50 (Cytochrome P450 2D6) | Ki (Cytochrome P450 2D6) | IC50 (Substance-P receptor) | IC50 (Adenosine receptor A3)

C[C@@H]1C[C@H]2[C@@H]3CCC4=CC(=O)C=C[C@]4(C)[C@@]3(F)[C@@H](O)C[C@]2(C)[C@H]1C(=O)CO [DESOXIMETASONE]
Not Active: IC50 [1] | Ki [1] | IC50 [2] | IC50 [3] | IC50 (Cytochrome P450 2D6) | Ki (Cytochrome P450 2D6) | IC50 (Substance-P receptor) | IC50 (Adenosine receptor A3)

CC(C)(C)NC(=O)[C@H]1CC[C@H]2[C@@H]3CC[C@H]4NC(=O)C=C[C@]4(C)[C@H]3CC[C@]12C [FINASTERIDE]
Not Active: IC50 [1] | Ki [1] | IC50 [2] | IC50 [3] | IC50 (Cytochrome P450 2D6) | Ki (Cytochrome P450 2D6) | IC50 (Substance-P receptor) | IC50 (Adenosine receptor A3)

CCn1cc(C(=O)O)c(=O)c2cnc(N3CCCC3)nc21 [PIROMIDIC ACID]
Not Active: IC50 [1] | Ki [1] | IC50 [2] | IC50 [3] | IC50 (Cytochrome P450 2D6) | Ki (Cytochrome P450 2D6) | IC50 (Substance-P receptor) | IC50 (Adenosine receptor A3)

CC1(C)S[C@@H]2[C@H](NC(=O)[C@H](N)c3ccccc3)C(=O)N2[C@H]1C(=O)O [AMPICILLIN]
Not Active: IC50 [1] | Ki [1] | IC50 [2] | IC50 [3] | IC50 (Cytochrome P450 2D6) | Ki (Cytochrome P450 2D6) | IC50 (Substance-P receptor) | IC50 (Adenosine receptor A3)
